Results as given in patent publication US20250074966A1, “AGENTS AND METHODS FOR PREVENTING OR INHIBITING ADAPTIVE IMMUNE RESPONSES ASSOCIATED WITH MULTIPLE SCLEROSIS” (Adaptive Biotechnologies Corporation, priority 2023, published 2025).

System: ZO-1
Assay: Primary human T cells transfected with TCRs co-cultured overnight with HLA-DRB1*15:01 positive K562 target cells expressing antigen-encoding constructs, T cell activation via CD137 expression
Format: cell-based
Details: antigen-encoding construct delivered as IVT RNA to K562 cells

MEETAIWEQHTVTLHRA [ZO-1]
processing and presentation of the antigen by HLA-DRB1*15:01 positive target cells: processed and presented
